Consider 16 compounds from PubChem BioAssay (NCI).

Each structure is given as a SMILES string.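 Five concentrations, 48 hours, 96-well plates. TGI: total growth inhibition.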 Some results are limits rather than exact numbers.

Assay in all cases: inhibition of tumour cell growth, NCI panel, 48 h
In test [1] the test system is A549 NSCLC.
The test system of test [2] is CAKI-1 renal.
Test [3] deals with CCRF-CEM leukemia.
In test [4] the test system is HCT-116 colon.
Test [5] has as its system HL-60(TB) leukemia.
In test [6] the test system is KM12 colon.
The test system of test [7] is LOX IMVI melanoma.
The subject of test [8] is MDA-MB-231 breast.
Test [9] has as its system NCI-H226 lung.
In test [10] the test system is NCI/ADR-RES ovarian.
Test [11] concerns OVCAR-3 ovarian.
Test [12] has as its system OVCAR-4 ovarian.
Test [13] has as its system OVCAR-5 ovarian.
Test [14] concerns PC-3 prostate.
Test [15] deals with SK-OV-3 ovarian.
For test [16], the system named is TK-10 renal.
The subject of test [17] is U251 CNS.
In test [18] the test system is HCC-2998 colon.
Test [19] deals with MALME-3M melanoma.

For the compound `C=C(CCOC)CCC1CCCCC(=C)[C@H]1OC(C)=O` (stereo not given in full), the TGI in test [1], in test [2], in [3], in [4], in test [5] and in test [6] was over 100 µM throughout. In addition, the TGI in test [7], in test [8], in test [9], in test [10], in [11] and in test [12] was over 100 µM each time. Moreover, the TGI in test [13], in test [14], in test [15], in test [16] and in test [17] was over 100 µM each time.

In the case of `CC(C)Oc1c(O)c2c3c(oc(=O)n3C=CC2c2ccccc2)c1OC(C)C` (stereo not given), the TGI in test [1] was 92.1 µM; in test [2], 67.7 µM; in test [18], 35.3 µM; in test [4], over 100 µM; in [5] it was 91.4 µM; in test [6], 89.6 µM. Besides, the TGI in [7] was over 100 µM; in test [8], over 100 µM; in [9] it was over 100 µM; in test [10], over 100 µM; in test [11] it was 80.5 µM; in test [12], over 100 µM. In addition, the TGI in test [13] is over 100 µM; in [14], 57.1 µM; in [15] it was over 100 µM; in [16] it was 68.2 µM; in test [17], 45.2 µM.

For the compound `CN1CC[C@]23c4c5ccc(O)c4O[C@H]2C(O)CC[C@@]3(O)[C@H]1C5` (stereo not given in full), the TGI in test [1], in test [2], in [4], in [5], in test [6] and in test [7] was over 100 µM each time. In addition, the TGI in test [19], in test [8], in [9], in test [10], in [11] and in [12] was over 100 µM in each case. Also, the TGI in [13], in [14], in [15], in [16] and in [17] was over 100 µM each time.

For the compound `CC(Cc1ccccc1)Nc1ncnc2c1ncn2C1OC(CO)CC1O` (stereo not given), the TGI in test [1], in [2], in test [3], in test [18], in test [4] and in test [6] was over 100 µM in each case. The TGI in [7], in test [19], in test [8], in test [9], in test [10] and in [11] was over 100 µM each time. Also, the TGI is over 100 µM in test [12]; over 100 µM in test [13]; over 100 µM in test [14]; 13.7 µM in [15]; over 100 µM in test [16]; over 100 µM in [17].

`Cc1ccc2nc(Cl)c(/C=N/N3C(=O)/C(=C/c4cccc([N+](=O)[O-])c4)N=C3c3ccccc3)cc2c1`: the TGI was over 100 µM in test [1]; over 100 µM in [2]; 97 µM in test [3]; over 100 µM in test [18]; over 100 µM in test [4]; over 100 µM in test [5]. The TGI in [6], in [7], in test [8], in test [10], in test [11] and in [12] was over 100 µM each time. Further, the TGI in test [13] is over 100 µM; in test [14] it was 76.9 µM; in test [15], over 100 µM; in test [16], over 100 µM; in test [17], over 100 µM.

In the case of `CCOC(=O)c1cc(=O)c2ccnc3c2n1CCS3`, the TGI in [1], in [2], in test [3], in test [4], in test [5] and in test [6] was over 100 µM each time. For the same compound, the TGI in test [7], in [8], in test [9], in [10], in test [11] and in test [13] was over 100 µM throughout. Moreover, the TGI in test [14], in test [15], in [16] and in test [17] was over 100 µM throughout.

With `O=[N+]([O-])C(=C(Nc1ccccc1)Nc1ccccc1)/C(Cl)=C(\Cl)[N+](=O)[O-]`, the TGI came out at 35.6 µM in test [1]; 3.18 µM in test [2]; 92.5 µM in [3]; 28.9 µM in test [18]; 10.7 µM in test [4]; 14.8 µM in test [6]. Besides, the TGI in test [7] worked out at 11.4 µM; in test [19], 14.2 µM; in test [8], 10.8 µM; in test [9], 34.5 µM; in [10], 38.5 µM; in [11] it was 12 µM. The TGI in test [12] was 17.6 µM; in test [13] it was 22.7 µM; in [14], 20.9 µM; in test [15], over 100 µM; in test [16] it was 16.9 µM; in [17] it was 18.1 µM.

With `Cn1c(=O)c2c(nc3n(CCCCl)c(=O)ccn23)n(C)c1=O`, the TGI in [1], in test [2], in test [3], in test [18], in test [4] and in test [5] was over 100 µM in each case. The TGI in [6], in test [7], in [8], in test [9], in test [10] and in [11] was over 100 µM each time. Moreover, the TGI in test [12], in test [13], in [14], in [15], in test [16] and in test [17] was over 100 µM throughout.

As for `COc1ccc(/C=C2\NC(=S)N(/C=C3\C(=O)Oc4ccccc4C3=O)C2=O)cc1OC`, the TGI in [1], in [2], in [3], in test [18], in test [4] and in [5] was over 100 µM in each case. Moreover, the TGI in [6], in test [7], in test [8], in test [9], in test [10] and in [11] was over 100 µM in each case. Besides, the TGI in [12], in [13], in test [14], in test [15], in test [16] and in test [17] was over 100 µM throughout.

As for `COC(=O)C(Cc1ccccc1)NP(=O)(O)OCC1OC(n2cc(Br)c(=O)[nH]c2=O)CC1O` (stereo not given), the TGI in test [1], in test [3], in test [18], in test [4], in test [5] and in [6] was over 100 µM each time. The TGI in test [7], in [19], in test [8], in test [9], in test [10] and in [11] was over 100 µM throughout. In addition, the TGI in [12], in [13], in [14], in [15], in test [16] and in test [17] was over 100 µM in each case.

In the case of `O=C(O)Cc1c(-c2ccc([N+](=O)[O-])cc2)c(=O)oc2cc(O)ccc12`, the TGI in test [1] was over 100 µM; in test [3], 88.8 µM; in test [18] it was 55.5 µM; in [4] it was 73.6 µM; in test [5], 39.4 µM; in test [6], 93.5 µM. The TGI is over 100 µM in test [7]; 59.9 µM in test [19]; over 100 µM in [8]; over 100 µM in test [9]; 54.6 µM in test [10]; 46.2 µM in [11]. The TGI in [13] was 98.9 µM; in [14], 94.5 µM; in test [15], 90 µM; in test [16] it was over 100 µM; in test [17], 53.5 µM.

Take `CCc1cc2c(c3c1CCC3=O)CC1(Cc3ccc(C)cc3C1)C2` (stereo not given): the TGI was 40.8 µM in test [1]; 34.7 µM in [3]; over 100 µM in [18]; 33.1 µM in test [4]; 41 µM in [5]; over 100 µM in test [6]. Besides, the TGI was over 100 µM in test [7]; over 100 µM in test [19]; over 100 µM in test [8]; 99.8 µM in [9]; over 100 µM in [10]; over 100 µM in test [11]. Moreover, the TGI in [12] is 98 µM; in test [13] it was over 100 µM; in test [14] it was 91.7 µM; in [15], over 100 µM; in test [16], over 100 µM; in test [17], over 100 µM.

In the case of `CC1=NN(c2cccc(Cl)c2)C(=N/c2nc3ccccc3s2)/C1=C\c1ccc(Cl)cc1`, the TGI in test [3] was determined as 96.9 µM; in [18], 31 µM; in [4], 30.7 µM; in test [5] it was 54.5 µM; in test [7] it was 34 µM; in test [8], 49.2 µM. The TGI in test [9] was determined as 43.8 µM; in [10], 50.7 µM; in test [11], 52.5 µM; in [13] it was 40.4 µM; in test [14] it was 31.3 µM; in test [15], 95.3 µM. Further, the TGI worked out at 64.3 µM in [16] and 28.7 µM in test [17].

`COC(=O)/C=C\COCC1C2CCC(=O)C21` (stereo not given): the TGI in test [1] is over 25 µM; in test [2] it was 1.29 µM; in [3] it was 16.2 µM; in [18], over 25 µM; in test [4], over 25 µM; in test [6] it was over 25 µM. Besides, the TGI was over 25 µM in [7]; 13.3 µM in [19]; over 25 µM in test [8]; over 25 µM in test [9]; over 25 µM in [10]; over 25 µM in [11]. In addition, the TGI in test [12], in [13], in [14], in [15], in test [16] and in test [17] was over 25 µM throughout.

Regarding `CN1Cc2cc3cc4c(cc3nc2N(C)C1)OCCO4`, the TGI in [1], in [2], in [3], in test [18], in [4] and in [6] was over 100 µM throughout. Moreover, the TGI in [7], in test [19], in [8], in [9], in test [10] and in test [12] was over 100 µM throughout. Also, the TGI in test [13], in test [14], in test [15], in test [16] and in test [17] was over 100 µM throughout.

For `C[C@@]1(O)C[C@@H](N2C(=O)O[C@@H](c3ccccc3)[C@H]2c2ccccc2)[C@@H]1COCc1ccccc1`, the TGI in test [1] was 97.9 µM; in [2], over 100 µM; in test [18] it was 58.4 µM; in [4], 47.4 µM; in [5], 23.5 µM; in test [6], 74.3 µM. The TGI amounted to 32.9 µM in test [7]; 46.8 µM in [19]; 39.8 µM in test [8]; 42.8 µM in test [9]; 64.8 µM in test [10]; 46.1 µM in [11]. Besides, the TGI was over 100 µM in [12]; 78.2 µM in [13]; 50.3 µM in [14]; 99.7 µM in [16]; 32.9 µM in [17].
